In PubChem BioAssay AID463229 (Broad Institute, 2010):
Active and inactive are the calls of the source.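 How the source made its calls: active means compounds raising the signal whose fitted half-maximal concentration is at or below their top tested dose (cut at about 25 µM in these data); inconclusive means flat fit at 30 to 70% activity, or a poor fit; inactive means the rest.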

system: INS-1E rat beta cells, no cytokines, CellTiter-Glo ATP, 48 h; assay: ATP level change in INS-1E without cytokines, dose response, counter-screen for beta-cell apoptosis protection project, INS-1E rat cells, ATP luminescence, cherry pick (AID 463229)

| SMILES | AC50 |
| --- | --- |
| Cc1ccc(S(=O)(=O)/N=C2\C=C(Nc3ccc(O)cc3)C(=O)c3ccccc32)cc1 | 1.91 µM |
| CN1/C(=C\C(=S)Nc2ccccc2)C(C)(C)c2ccccc21 | 10.1 µM |
| CCN(CC)CCn1nc2c3c(cccc3c1=O)-c1ccccc1-2 | 6.74 µM |
| Cn1nc(-c2ccc(Cl)cc2)nc2c(=O)n(C)c(=O)nc1-2 | 0.508 µM |
| CC1=NNC(=O)/C1=C\c1cn(-c2ccccc2)nc1-c1ccc(Cl)cc1 | 10.9 µM |
| Cc1cc(C)n(Cc2ccc(NC(=O)c3ccc(COc4ccccc4Br)cc3)cc2)n1 | 8.33 µM |
| O=C(N/N=C\c1c(O)ccc2ccccc12)c1ccc(S(=O)(=O)N2CCCCC2)cc1 | 1.11 µM |
| COc1ccc(C2/C=C\CN(C(=O)c3ccc(C)cc3)[C@H](Cc3ccccc3)C(=O)N2Cc2ccc(F)cc2)cc1 (some centres undefined) | 7.33 µM |
| CCCCNc1c(-c2cccc(-c3ccc(OC)cc3)c2)nc2ccc(C)cn12 | 7.32 µM |
| COc1cccc(Cn2c(NCc3ccco3)nc3c2c(=O)n(C)c(=O)n3C)c1 | 6.42 µM |
| Oc1cc(-c2ccc(N3CCCCC3)nc2)cc2cccnc12 | 7.31 µM |
| CC(C)C[C@H]1CN=C(Nc2ccccc2)N1CCc1ccc(F)cc1 | > 26 µM (inactive) |
| Cc1cc(C(=O)NC2CCCc3c2cnn3-c2ccc(C)c(C)c2)n(C)n1 (centres undefined) | 0.378 µM |
| Cc1cc(C(=O)N/N=C/c2cc(Br)ccc2OC(=O)c2ccccc2)n[nH]1 | 7.44 µM |
| C#CCOCCOCCOCCNc1nc(N2CCN(C(=O)CCCCCCCCCCNC(=O)[C@H](CCCCN)n3cc(C)nn3)CC2)nc(N2CCN(C(=O)CCCCCCCCCCNC(=O)[C@H](CCCN=C(N)N)n3cc(C[C@@H](C)CC)nn3)CC2)n1 | 7.85 µM |
| COc1cc(CNC2CCCC2)cc(Cl)c1OCc1ccccc1Cl | 14.6 µM |
| N#Cc1ccc(C(=O)Nc2nc(-c3cccs3)c(C(=O)C(F)(F)F)s2)cc1 | 4.37 µM |
| Cn1nc([N+](=O)[O-])nc1Sc1cccc2cccnc12 | 7.81 µM |
| O=C(NCCOCCOCCNC(=O)c1cccnc1)c1cccnc1 | 3.83 µM |
| CCN1CCN(c2ccc(S(=O)(=O)N3CCCCC3)cc2NC(=O)c2ccc([N+](=O)[O-])s2)CC1 | 6.94 µM |
| C=CCc1cccc(/C=N/NC(=O)c2ccccc2OC)c1O | 9.61 µM |
| CC(C)c1cccc(C(C)C)c1OC(=O)[C@H]1OC(C(C)(C)C)=C[C@@H]1c1ccccc1 | 7.8 µM |
| Cc1ccc(NS(=O)(=O)c2ccc(Cl)c(NC(=S)NC(=O)C3CCCCC3)c2)cc1Cl | 14 µM |
| CCN(CC)C(=O)c1ccc(S(=O)(=O)N2CCC(c3nc4ccccc4s3)CC2)cc1 | 7.7 µM |
| Oc1c(CN2CCN(c3ccccc3)CC2)cc(Br)c2cccnc12 | 5.87 µM |
| CCOC(=O)c1cccc(-[n+]2c(-c3ccccc3)cc(-c3ccccc3)cc2-c2ccccc2)c1 | 3.59 µM |
| CC1=C/C(=N\OS(=O)(=O)c2ccccc2)C(C)=CC1=O | 1.52 µM |

| SMILES | AC50 |
| --- | --- |
| CCOC(=O)c1sc(NC(=O)c2c(C)nn(Cc3ccccc3)c2C)cc1C | > 26 µM (inactive) |
| Cc1nnc2ccc(Oc3ccc(-c4ccccc4)cc3)nn12 | 8.92 µM |
| Cc1ccc(Cn2c(=N)n(CC(=O)c3ccccc3)c3ccccc32)cc1 | 9.12 µM |
| CCCC[n+]1ccn(C2=C([O-])c3ccccc3C(=O)/C2=N\S(=O)(=O)c2ccc(Br)cc2)c1 | 15.2 µM |
| c1ccc(CCNc2nc(-c3ccccn3)nc3ccccc23)cc1 | 4.92 µM |
| COc1ccc(CCNc2ncnc3c2oc2ccccc23)cc1OC | 3.41 µM |
| O=C(NCc1nc(-c2ccc(C(F)(F)F)cc2)no1)Nc1cc(Cl)cc(Cl)c1 | 6.94 µM |
| Fc1ccc(-c2cc(-c3nnc4n3CCCCC4)c3ccccc3n2)cc1 | 8.53 µM |
| O=C1c2ccc3c4c(ccc(c24)C(=O)N1c1cccc(O)c1)C(=O)N(c1cccc(O)c1)C3=O | 3.36 µM |
| COC(=O)c1ccc(NC(=O)c2nc(S(=O)(=O)Cc3cccc(C)c3)ncc2Cl)cc1 | 10.8 µM |
| CC1=NN(c2ccc(C)c(C)c2)C(=O)/C1=C\C=C\c1ccc([N+](=O)[O-])o1 | 7.6 µM |
| N=c1c2c(n(Cc3ccc(Cl)c(Cl)c3)c3c1CCC3)CCCC2 | 3.57 µM |
| CCC(C)Nc1nc(-c2ccccn2)nc2ccccc12 (centres undefined) | 9.01 µM |
| CCN(CC)c1ccc(/C=N/NC(=S)NCc2ccccc2)c(O)c1 | 12.3 µM |
| C/C(=N\N1C(=O)c2ccccc2NC1c1ccco1)c1ccccc1O (centres undefined) | 12.5 µM |
| C/C(=N\NC(=O)C(C)Oc1ccc([N+](=O)[O-])cc1)c1ccccn1 (centres undefined) | 4.2 µM |
| O=C(N/N=C/c1cc(Br)cc(Cl)c1O)c1ccc2c(c1)OCO2 | 11 µM |
| Cc1cc(N2CCN(C)CC2)ccc1NC(=O)c1c2c(nc3ccccc13)CCN(Cc1ccccc1)C2 | 8 µM |
| Oc1ccccc1/C=N/Nc1ncc(Br)cn1 | 19.7 µM |
| CN1/C(=C\C(=O)C[n+]2ccc(C(=O)c3ccccc3)cc2)C(C)(C)c2ccccc21 | 1.26 µM |
| Cc1ccc(Nc2c(-c3ccccn3)nc3cccc(C)n23)cc1 | 6.47 µM |
| O=C(Nc1ccc([N+](=O)[O-])cc1)Nc1nc(-c2ccc(Cl)s2)cs1 | 1.88 µM |
| N#CC(C#N)=NNc1ccc(-n2ccc(C(F)(F)F)n2)cc1 | 7.8 µM |
| CC1(C)Cc2c(c(N3CCOCC3)nc3sc4c(NN)ncnc4c23)CS1 | 6.38 µM |
| COc1ccc2[nH]c(C(=O)N/N=C/c3ccc(O)cc3O)cc2c1 | 2.08 µM |
| O=C(N/N=C/c1cnc(N2CCCCC2)s1)c1ccc(C(F)(F)F)cc1 | 6.66 µM |
| Cc1c2ccncc2c(C)c2c1[nH]c1ccccc12 | 5.21 µM |
